Results taken from PubChem BioAssay AID1845208 (Molecular Pharmacology Branch, DTP, NCI, 2023).

System: NCI-H196 SCLC complex tumor spheroid viability
Test: Anticancer human tumor NCI-H196 cell line growth inhibition;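 further: spheroids exposed to compounds for 7 days before readout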;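 on viability, T/C: 100% = DMSO vehicle control wells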
Details: for IC50: curve of first compound; for viability, T/C: stronger effect = lower value
Procedure, shortened: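 Single agents and combinations were tested on spheroids built from tumor cells plus HUVEC and hMSC, at half-log dilutions starting at or near clinical Cmax, else 10 microM; final DMSO 0.25% (v/v).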

[1] = second compound 0.003 µM, first compound 0.0316 µM
[2] = second compound 0.003 µM, first compound 0.1 µM
[3] = second compound 0.003 µM, first compound 0.316 µM
[4] = second compound 0.003 µM, first compound 1 µM
[5] = second compound 0.003 µM, first compound 3.16 µM
[6] = second compound 0.003 µM, first compound 10 µM
[7] = second compound 0.00949 µM, first compound 0.0316 µM
[8] = second compound 0.00949 µM, first compound 0.1 µM
[9] = second compound 0.00949 µM, first compound 0.316 µM
[10] = second compound 0.00949 µM, first compound 1 µM
[11] = second compound 0.00949 µM, first compound 3.16 µM
[12] = second compound 0.00949 µM, first compound 10 µM
[13] = second compound 0.03 µM, first compound 0.0316 µM
[14] = second compound 0.03 µM, first compound 0.1 µM
[15] = second compound 0.03 µM, first compound 0.316 µM
[16] = second compound 0.03 µM, first compound 1 µM
[17] = second compound 0.03 µM, first compound 3.16 µM
[18] = second compound 0.03 µM, first compound 10 µM
[19] = second compound 0.0949 µM, first compound 0.0316 µM
[20] = second compound 0.0949 µM, first compound 0.1 µM
[21] = second compound 0.0949 µM, first compound 0.316 µM
[22] = second compound 0.0949 µM, first compound 1 µM
[23] = second compound 0.0949 µM, first compound 3.16 µM
[24] = second compound 0.0949 µM, first compound 10 µM
[25] = second compound 0.3 µM, first compound 0.0316 µM
[26] = second compound 0.3 µM, first compound 0.1 µM
[27] = second compound 0.3 µM, first compound 0.316 µM
[28] = second compound 0.3 µM, first compound 1 µM
[29] = second compound 0.3 µM, first compound 3.16 µM
[30] = second compound 0.3 µM, first compound 10 µM

Structure (SMILES): COc1ccc([C@@H](O)c2cc(-c3ncnc4cc(N5CCOCC5)ccc34)c(F)cc2Cl)nn1 + Cn1nnc2c(C(N)=O)ncn2c1=O
- IC50 (second compound 1 µM): > 10 µM
- IC50 (second compound 3.16 µM): > 10 µM
- IC50 (second compound 10 µM): > 10 µM
- IC50 (second compound 31.6 µM): > 10 µM
- IC50 (second compound 100 µM): > 10 µM
- viability, T/C (second compound 1 µM, first compound 0.0316 µM): 93.8%
- viability, T/C (second compound 1 µM, first compound 0.1 µM): 97.1%
- viability, T/C (second compound 1 µM, first compound 0.316 µM): 87.3%
- viability, T/C (second compound 1 µM, first compound 1 µM): 73.5%
- viability, T/C (second compound 1 µM, first compound 3.16 µM): 65.6%
- viability, T/C (second compound 1 µM, first compound 10 µM): 52%
- viability, T/C (second compound 3.16 µM, first compound 0.0316 µM): 98.8%
- viability, T/C (second compound 3.16 µM, first compound 0.1 µM): 92.5%
- viability, T/C (second compound 3.16 µM, first compound 0.316 µM): 96.7%
- viability, T/C (second compound 3.16 µM, first compound 1 µM): 82.5%
- viability, T/C (second compound 3.16 µM, first compound 3.16 µM): 68.9%
- viability, T/C (second compound 3.16 µM, first compound 10 µM): 52.9%
- viability, T/C (second compound 10 µM, first compound 0.0316 µM): 108%
- viability, T/C (second compound 10 µM, first compound 0.1 µM): 97.3%
- viability, T/C (second compound 10 µM, first compound 0.316 µM): 96.5%
- viability, T/C (second compound 10 µM, first compound 1 µM): 80.1%
- viability, T/C (second compound 10 µM, first compound 3.16 µM): 63.7%
- viability, T/C (second compound 10 µM, first compound 10 µM): 55.5%
- viability, T/C (second compound 31.6 µM, first compound 0.0316 µM): 109%
- viability, T/C (second compound 31.6 µM, first compound 0.1 µM): 101%
- viability, T/C (second compound 31.6 µM, first compound 0.316 µM): 92.5%
- viability, T/C (second compound 31.6 µM, first compound 1 µM): 80.1%
- viability, T/C (second compound 31.6 µM, first compound 3.16 µM): 71.4%
- viability, T/C (second compound 31.6 µM, first compound 10 µM): 59.3%
- viability, T/C (second compound 100 µM, first compound 0.0316 µM): 105%
- viability, T/C (second compound 100 µM, first compound 0.1 µM): 99.9%
- viability, T/C (second compound 100 µM, first compound 0.316 µM): 95.7%
- viability, T/C (second compound 100 µM, first compound 1 µM): 91.2%
- viability, T/C (second compound 100 µM, first compound 3.16 µM): 70.3%
- viability, T/C (second compound 100 µM, first compound 10 µM): 57%

Structure (SMILES): CC1COCCN1c1cc(-c2ccnn2C)c2ccnc(-c3ccn[nH]3)c2n1 (stereo not given) + CC[C@@]1(O)C(=O)OCc2c1cc1n(c2=O)Cc2cc3c(CN(C)C)c(O)ccc3nc2-1
- IC50 (second compound 0.003 µM): 4.08 µM
- IC50 (second compound 0.00949 µM): 2.26 µM
- IC50 (second compound 0.03 µM): 4.78 µM
- IC50 (second compound 0.0949 µM): 4.15 µM
- IC50 (second compound 0.3 µM): 0.334 µM
- viability, T/C [1]: 83%
- viability, T/C [2]: 75.1%
- viability, T/C [3]: 68.1%
- viability, T/C [4]: 57%
- viability, T/C [5]: 50.6%
- viability, T/C [6]: 47.3%
- viability, T/C [7]: 75.4%
- viability, T/C [8]: 69.9%
- viability, T/C [9]: 67%
- viability, T/C [10]: 51.4%
- viability, T/C [11]: 52%
- viability, T/C [12]: 45%
- viability, T/C [13]: 70.8%
- viability, T/C [14]: 64.9%
- viability, T/C [15]: 60.9%
- viability, T/C [16]: 57.6%
- viability, T/C [17]: 50.2%
- viability, T/C [18]: 47.6%
- viability, T/C [19]: 62.8%
- viability, T/C [20]: 61.5%
- viability, T/C [21]: 61.7%
- viability, T/C [22]: 57.1%
- viability, T/C [23]: 50.7%
- viability, T/C [24]: 44.3%
- viability, T/C [25]: 55.9%
- viability, T/C [26]: 51.7%
- viability, T/C [27]: 48.4%
- viability, T/C [28]: 49.1%
- viability, T/C [29]: 43.4%
- viability, T/C [30]: 38.5%

Structure (SMILES): Cc1sc2c(c1C)C(c1ccc(Cl)cc1)=NC(CC(=O)Nc1ccc(O)cc1)c1nnc(C)n1-2 (stereo not given) + COc1cc2c(cc1O)CCNC21CSC2c3c(OC(C)=O)c(C)c4c(c3C(COC1=O)N1C(O)C3Cc5cc(C)c(OC)c(O)c5C(C21)N3C)OCO4
- IC50 (second compound 30 pM): 0.631 µM
- IC50 (second compound 94.9 pM): 1.02 µM
- IC50 (second compound 0.0003 µM): 2.54 µM
- IC50 (second compound 0.000949 µM): > 3 µM
- IC50 (second compound 0.003 µM): < 0.00949 µM
- viability, T/C (second compound 30 pM, first compound 0.00949 µM): 94.4%
- viability, T/C (second compound 30 pM, first compound 0.03 µM): 96.4%
- viability, T/C (second compound 30 pM, first compound 0.0949 µM): 93.8%
- viability, T/C (second compound 30 pM, first compound 0.3 µM): 69.3%
- viability, T/C (second compound 30 pM, first compound 0.949 µM): 39.7%
- viability, T/C (second compound 30 pM, first compound 3 µM): 21.8%
- viability, T/C (second compound 94.9 pM, first compound 0.00949 µM): 103%
- viability, T/C (second compound 94.9 pM, first compound 0.03 µM): 100%
- viability, T/C (second compound 94.9 pM, first compound 0.0949 µM): 95%
- viability, T/C (second compound 94.9 pM, first compound 0.3 µM): 80.1%
- viability, T/C (second compound 94.9 pM, first compound 0.949 µM): 51.4%
- viability, T/C (second compound 94.9 pM, first compound 3 µM): 26.9%
- viability, T/C (second compound 0.0003 µM, first compound 0.00949 µM): 110%
- viability, T/C (second compound 0.0003 µM, first compound 0.03 µM): 110%
- viability, T/C (second compound 0.0003 µM, first compound 0.0949 µM): 102%
- viability, T/C (second compound 0.0003 µM, first compound 0.3 µM): 88.7%
- viability, T/C (second compound 0.0003 µM, first compound 0.949 µM): 65.7%
- viability, T/C (second compound 0.0003 µM, first compound 3 µM): 47.4%
- viability, T/C (second compound 0.000949 µM, first compound 0.00949 µM): 89.6%
- viability, T/C (second compound 0.000949 µM, first compound 0.03 µM): 88%
- viability, T/C (second compound 0.000949 µM, first compound 0.0949 µM): 80.9%
- viability, T/C (second compound 0.000949 µM, first compound 0.3 µM): 87.3%
- viability, T/C (second compound 0.000949 µM, first compound 0.949 µM): 68.2%
- viability, T/C (second compound 0.000949 µM, first compound 3 µM): 52.7%
- viability, T/C (second compound 0.003 µM, first compound 0.00949 µM): 6.44%
- viability, T/C (second compound 0.003 µM, first compound 0.03 µM): 6.85%
- viability, T/C (second compound 0.003 µM, first compound 0.0949 µM): 6.03%
- viability, T/C (second compound 0.003 µM, first compound 0.3 µM): 8.32%
- viability, T/C (second compound 0.003 µM, first compound 0.949 µM): 2.93%
- viability, T/C (second compound 0.003 µM, first compound 3 µM): 0.8%

Structure (SMILES): Cc1cc(C)c(CNC(=O)c2cc(-c3ccc(CN4CCOCC4)cc3)cc3c2cnn3C2CCCC2)c(=O)[nH]1 + CC[C@@]1(O)C(=O)OCc2c1cc1n(c2=O)Cc2cc3c(CN(C)C)c(O)ccc3nc2-1
- IC50 (second compound 0.003 µM): > 10 µM
- IC50 (second compound 0.00949 µM): > 10 µM
- IC50 (second compound 0.03 µM): > 10 µM
- IC50 (second compound 0.0949 µM): > 10 µM
- IC50 (second compound 0.3 µM): > 10 µM
- viability, T/C [1]: 99.4%
- viability, T/C [2]: 94.9%
- viability, T/C [3]: 102%
- viability, T/C [4]: 95.6%
- viability, T/C [5]: 101%
- viability, T/C [6]: 104%
- viability, T/C [7]: 96.5%
- viability, T/C [8]: 105%
- viability, T/C [9]: 99.9%
- viability, T/C [10]: 88.7%
- viability, T/C [11]: 94.7%
- viability, T/C [12]: 96.5%
- viability, T/C [13]: 91.8%
- viability, T/C [14]: 96.1%
- viability, T/C [15]: 98.4%
- viability, T/C [16]: 93%
- viability, T/C [17]: 97.5%
- viability, T/C [18]: 112%
- viability, T/C [19]: 102%
- viability, T/C [20]: 101%
- viability, T/C [21]: 108%
- viability, T/C [22]: 98.5%
- viability, T/C [23]: 97%
- viability, T/C [24]: 98.6%
- viability, T/C [25]: 95.6%
- viability, T/C [26]: 87.7%
- viability, T/C [27]: 86.1%
- viability, T/C [28]: 87.9%
- viability, T/C [29]: 79.9%
- viability, T/C [30]: 86.9%
